Patent US12203124B2, “Methods for improved rapid antimicrobial susceptibility testing” (priority 2016, dated 2025)

Test system: Bacteria
Test: Bacterial growth with or without resazurin during incubation, BacTiter-Glo luminescence
Assay type: cell-based
Conditions: 4 hours at 35° C., versus resazurin added after incubation
Description: FIG. 1 illustrates growth luminescence ratios post-incubation of microogranisms, where resazurin was introduced to one group of microorganisms before the initial incubation period and the other group was introduced to resazurin after the initial incubation period.
Bacteria were inoculated into 96-well microplates comprise cation-adjusted Mueller Hinton broth in the presence and absence of resazurin (alamarBlue®) and incubated at 35° C. for 4 hours. For wells that were not incubated with resazurin, the growth indicator was added immediately after the 4-hour incubation. BacTiter-Glo reagent (Promega, Madison, WI) was added to all wells and luminescence was measured. […] Thus, it can be advantageous to remove growth indicator from test wells during incubation.

## O=c1ccc2[n+]([O-])c3ccc(O)cc3oc-2c1 [resazurin, 7-hydroxy-10-oxidophenoxazin-10-ium-3-one]
  Effect of resazurin present during incubation on viable bacteria (BacTiter-Glo luminescence): less luminescent signal was observed
